Measured values: patent publication US20160237012A1, “ANTICANCER AGENTS AND PROCESS OF MAKING THEREOF” (Golden Biotechnology Corporation, priority 2015, published 2016)

Tests used:
[1] = tested on: Hep 3B; conditions: based on the prior published result; read-out: IC50 against Hep 3B; cited from earlier work
[2] = tested on: MCF-7; test: MTT cell viability assay, MCF-7; type: cell-based; conditions: MCF7, 48 hours, human breast cancer MCF-7, average of at least six independent experiments
Procedure: (§1) Human hepatoma (HepG2 and Hep 3B) and human breast cancer (MCF-7) cell lines were obtained from American Type Culture Collection (Rockville, Md., USA). HepG2 and Hep 3B cells were cultured in MEM alpha medium (Invitrogen/Gibco BRL, Grand Island, N.Y., USA) and MCF-7 cells were cultured in DMEM medium (Invitrogen/Gibco BRL). All cells were cultured at 37° C. in 5% CO2 in culture media supplemented with 10% fetal bovine serum (Invitrogen/Gibco BRL) and 100 U/ml streptomycin and penicillin (Invitrogen/Gibco BRL). For treatment, cells were seeded in six-well plates at 6.25×10^5 cells/well. On the following day, the media were changed to serum-free and the cells were serum-starved for 24 h. […]
(§2) The MTT (3-(4, 5-dimethylthiazol-2-yl)-2,5-diphenyl tetrazolium bromide) cell viability assay is a colorimetric assay system, which measures the reduction of a tetrazolium component (MTT) into an insoluble blue/purple colored formazan product by succinate tetrazolium reductase in mitochondria of viable cells. The absorbance of the complex is read spectrophotometrically and is directly proportional to the number of live or viable cells. […]
(§3) To each of the 96 well plates seeded at a density of 5,000 cells per well, a known concentration of test compounds were added individually. […] The IC50 value was determined by a nonlinear curve fitting program using the GraphPad prism software v 4.01.

[3] = tested on: Hep3B; test: MTT cell viability assay, Hep3B; type: cell-based; conditions: 48 hours, human hepatoma Hep3B, average of at least six independent experiments
Procedure: as §1, §2, §3

[4] = tested on: HepG2; test: MTT cell viability assay, HepG2; type: cell-based; conditions: 48 hours, human hepatoma HepG2, average of at least six independent experiments
Procedure: as §1, §2, §3

Row | SMILES | IC50 [1] [nM] | IC50 [2] [nM] | IC50 [3] [nM] | IC50 [4] [nM]
1 | COC1=C(OC)C(O)C(CC=C(C)CCC=C(C)CCC=C(C)C)C(C)C1=O (stereo not shown) [4-hydroxy-2,3-dimethoxy-6-methyl-5-(3,7,11-trimethyldodeca-2,6,10-trienyl)cyclohex-2-enone] | > 30000 | – | – | –
2 | CC(C)=CCC/C(C)=C/CC/C(C)=C/Cc1c(O)ccc(O)c1C [Compound 1] | – | 519 | 325 | 948
3 | CC(C)=CCC/C(C)=C/CC/C(C)=C/CC1C(O)C=CC(=O)C1C (stereo not shown) [Compound 3] | – | 108 | 4.3 | 156
